Measured values as given in paper PMC10709440, “High-throughput ligand profile characterization in novel cell lines expressing seven heterologous insect olfactory receptors for the detection of volatile plant biomarkers” (Scientific Reports, 2023).
Read-outs that look alike come from different tables or passages of the source.

How the values were obtained:
[1] = molecular target: T1, Drosophila OR10a (Drosophila melanogaster, UniProt Q9VYZ1); test: Calcium ion fluorescence (GCaMP6) assay, OR10a stable HEK293 cell line; format: cell-based; design: key to DF norm AVERAGE OR10a: VOC ∆F divided by the plate's mean ∆F response to 50 µM VUAA1
T1 construct: expressed in transfected cells
T1 sequence (Q9VYZ1 1-406): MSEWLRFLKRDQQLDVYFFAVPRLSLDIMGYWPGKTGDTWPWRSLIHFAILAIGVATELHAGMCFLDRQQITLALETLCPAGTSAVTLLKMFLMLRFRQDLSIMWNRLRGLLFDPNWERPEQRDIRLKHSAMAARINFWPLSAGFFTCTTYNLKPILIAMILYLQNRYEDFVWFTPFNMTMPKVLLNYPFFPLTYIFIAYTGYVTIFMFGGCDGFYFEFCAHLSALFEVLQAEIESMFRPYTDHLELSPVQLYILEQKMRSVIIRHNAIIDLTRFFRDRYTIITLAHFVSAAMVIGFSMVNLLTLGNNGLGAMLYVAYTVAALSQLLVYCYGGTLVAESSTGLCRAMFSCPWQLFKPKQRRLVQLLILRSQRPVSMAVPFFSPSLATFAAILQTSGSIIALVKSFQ
T1 sequence (Q9VNB5 1-486 partner): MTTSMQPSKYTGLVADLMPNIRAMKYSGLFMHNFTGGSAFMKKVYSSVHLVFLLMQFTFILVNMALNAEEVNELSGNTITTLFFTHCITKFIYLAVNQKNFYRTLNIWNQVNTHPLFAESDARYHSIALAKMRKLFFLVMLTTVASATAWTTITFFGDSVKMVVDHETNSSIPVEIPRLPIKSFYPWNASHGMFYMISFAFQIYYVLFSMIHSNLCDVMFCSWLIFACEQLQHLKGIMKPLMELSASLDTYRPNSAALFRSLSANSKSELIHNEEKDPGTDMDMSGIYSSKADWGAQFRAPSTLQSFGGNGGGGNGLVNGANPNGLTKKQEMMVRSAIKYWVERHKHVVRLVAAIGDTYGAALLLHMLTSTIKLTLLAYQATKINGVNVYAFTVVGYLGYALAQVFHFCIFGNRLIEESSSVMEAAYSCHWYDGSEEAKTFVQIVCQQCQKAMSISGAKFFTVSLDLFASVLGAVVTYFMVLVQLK
In short: (§1)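 HEK293 lines stably expressing each Drosophila OR with GCaMP6, doxycycline-induced (1 μg/mL) 48 or 72 h. Fluorescence recorded 5 s baseline then 30 s after VOC injection at pH 7.3; ΔF=(FMAX−F0)/F0, normalized to 50 µM VUAA1 response per line, triplicate wells averaged; concentration series 0.01–100 μM.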

[2] = molecular target: T2, Drosophila OR98a (Drosophila melanogaster, UniProt Q9VAZ3); test: Calcium ion fluorescence (GCaMP6) assay, OR98a stable HEK293 cell line; format: cell-based; design: key to DF norm AVERAGE OR98a: VOC ∆F divided by the plate's mean ∆F response to 50 µM VUAA1; conditions: for OR98a Average response (VUAA1-normalized): 50 μM VUAA1 = 1; for Average response: average of biological replicates, fraction of VUAA1 response
T2 construct: expressed in transfected cells
T2 sequence (Q9VAZ3 1-397): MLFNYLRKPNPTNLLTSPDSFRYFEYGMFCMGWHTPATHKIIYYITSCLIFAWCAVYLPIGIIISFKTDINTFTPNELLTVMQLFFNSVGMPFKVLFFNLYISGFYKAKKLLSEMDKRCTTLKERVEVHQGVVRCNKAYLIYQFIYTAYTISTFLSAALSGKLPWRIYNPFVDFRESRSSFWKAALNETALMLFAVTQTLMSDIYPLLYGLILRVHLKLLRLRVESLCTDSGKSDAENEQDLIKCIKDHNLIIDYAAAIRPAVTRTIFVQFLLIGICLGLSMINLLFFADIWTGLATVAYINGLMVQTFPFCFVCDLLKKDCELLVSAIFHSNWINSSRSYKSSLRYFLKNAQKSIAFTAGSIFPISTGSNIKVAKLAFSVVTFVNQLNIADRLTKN
T2 sequence (Q9VNB5 1-486 partner): T1 sequence (Q9VNB5 1-486 partner)
In short: as §1

[3] = HEK293, read-out: OR10a Average response (VUAA1-normalized)
[4] = HEK293, read-out: OR10a response (VUAA1-normalized response)
[5] = ligand concentration 1 (unit not given), threshold 0.05, below shown as 0
[6] = ligand concentration 10 (unit not given), threshold 0.05, below shown as 0
[7] = ligand concentration 100 (unit not given), threshold 0.05, below shown as 0
[8] = HEK293, read-out: Average response
[9] = HEK293, read-out: OR98a response (VUAA1-normalized response)
[10] = HEK293, 1 μM VOC, 50 μM VUAA1 = 1, responses not exceeding 0.05 considered 0, read-out: OR10a Average response (VUAA1-normalized)
[11] = HEK293, 10 μM VOC, 50 μM VUAA1 = 1, responses not exceeding 0.05 considered 0, read-out: OR10a Average response (VUAA1-normalized)
[12] = HEK293, 100 μM VOC, 50 μM VUAA1 = 1, responses not exceeding 0.05 considered 0, read-out: OR10a Average response (VUAA1-normalized)
[13] = HEK293, read-out: OR98a Average response (VUAA1-normalized)
[14] = HEK293, read-out: OR10a response (VUAA1-normalized response), VOC concentration 1 μM
[15] = HEK293, read-out: OR10a response (VUAA1-normalized response), VOC concentration 10 μM
[16] = HEK293, read-out: OR10a response (VUAA1-normalized response), VOC concentration 100 μM
[17] = concentration 1, normalized fluorescence change, values below 0.05 threshold given as 0
[18] = concentration 10, normalized fluorescence change, values below 0.05 threshold given as 0
[19] = concentration 100, normalized fluorescence change, values below 0.05 threshold given as 0

SMILES	DF norm AVERAGE OR10a [1, 5]	DF norm AVERAGE OR10a [1, 6]	DF norm AVERAGE OR10a [1, 7]	activation at 1 µM [2, 8] [%]	activation at 10 µM [2, 8] [%]	activation at 100 µM [2, 8] [%]	activation at 1 µM [2, 9] [%]	activation at 10 µM [2, 9] [%]	activation at 100 µM [2, 9] [%]	DF norm AVERAGE OR98a [2, 5]	DF norm AVERAGE OR98a [2, 6]	DF norm AVERAGE OR98a [2, 7]	activation at 1 µM [1, 10] [%]	activation at 10 µM [1, 11] [%]	activation at 100 µM [1, 12] [%]	activation at 1 µM [1, 14] [%]	activation at 10 µM [1, 15] [%]	activation at 100 µM [1, 16] [%]	also measured
CC/C=C\CCO [E-3-hexenol]																			OR10a response (VUAA1-normalized response) ([1]; VOC concentration 1 μM): 0.00; OR10a response (VUAA1-normalized response) ([1]; VOC concentration 10 μM): 0.00; OR10a response (VUAA1-normalized response) ([1]; VOC concentration 100 μM): 0.074; OR98a response (VUAA1-normalized response) ([2]; VOC concentration 1 μM): 0.00; OR98a response (VUAA1-normalized response) ([2]; VOC concentration 10 μM): 0.00; OR98a response (VUAA1-normalized response) ([2]; VOC concentration 100 μM): 0.00
CCc1ccccc1 [ethylbenzene]	0.1713	0	0.05742	0	12	0	0	12	0	0	0.1169	0							activation at 1 µM [1, 3]: 17%; activation at 10 µM [1, 3]: 3.3%; activation at 100 µM [1, 3]: 6%; activation at 1 µM [1, 4]: 17%; activation at 10 µM [1, 4]: 0%; activation at 100 µM [1, 4]: 6%
OCCc1ccccc1 [phenethyl alcohol]	0	0.05732	0	4	5	12				0	0.05123	0.122	3	6	3				OR10a response (VUAA1-normalized) at 1 μM ([1]; OR10a cell line, VOC concentration 1 μM): 0.00; OR10a response (VUAA1-normalized) at 10 μM ([1]; OR10a cell line, VOC concentration 10 μM): 0.06; OR10a response (VUAA1-normalized) at 100 μM ([1]; OR10a cell line, VOC concentration 100 μM): 0.00; activation at 1 µM [2, 13]: 4%; activation at 10 µM [2, 13]: 5%; activation at 100 µM [2, 13]: 12%; OR98a response (VUAA1-normalized) at 1 μM ([2]; OR98a cell line, VOC concentration 1 μM): 0.00; OR98a response (VUAA1-normalized) at 10 μM ([2]; OR98a cell line, VOC concentration 10 μM): 0.05; OR98a response (VUAA1-normalized) at 100 μM ([2]; OR98a cell line, VOC concentration 100 μM): 0.12
CC/C=C\CCO [Z3-hexenol]																			OR10a Average response (VUAA1-normalized) ([1]; 1 μM VOC, 50 μM VUAA1 = 1, responses not exceeding 0.05 considered 0): 0.17; OR10a Average response (VUAA1-normalized) ([1]; 10 μM VOC, 50 μM VUAA1 = 1, responses not exceeding 0.05 considered 0): 0.19; OR10a Average response (VUAA1-normalized) ([1]; 100 μM VOC, 50 μM VUAA1 = 1, responses not exceeding 0.05 considered 0): 0.10; DF norm AVERAGE OR10a ([1]; ligand concentration 1 (unit not given), […]): 0.1736; DF norm AVERAGE OR10a ([1]; ligand concentration 10 (unit not given), […]): 0.1946; DF norm AVERAGE OR10a ([1]; ligand concentration 100 (unit not given), […]): 0.1046; OR98a Average response (VUAA1-normalized) ([2]; 1 μM VOC): 0.00; OR98a Average response (VUAA1-normalized) ([2]; 10 μM VOC): 0.17; OR98a Average response (VUAA1-normalized) ([2]; 100 μM VOC): 0.11; Average response ([2]; cc. 1 µM, OR98a cell line): 0.00; Average response ([2]; cc. 10 µM, OR98a cell line): 0.17; Average response ([2]; cc. 100 µM, OR98a cell line): 0.11; DF norm AVERAGE OR98a ([2]; ligand concentration 1 (unit not given), 0.05 threshold, values below shown as 0): 0; DF norm AVERAGE OR98a ([2]; ligand concentration 10 (unit not given), 0.05 threshold, values below shown as 0): 0.167; DF norm AVERAGE OR98a ([2]; ligand concentration 100 (unit not given), 0.05 threshold, values below shown as 0): 0.1147
CC(=O)c1ccccc1 [acetophenone]	0	0	0.2367	4	0	0	0	0	0	0	0	0	4	0	24	0	0	24	
O=Cc1ccccc1 [benzaldehyde]	0	0	0.1697	0	0	4.43	0	0	0	0	0	0	0	4	17	0	0	17	
C=CC(O)C/C=C\CC (centres unmarked) [(5Z)-octa-1,5-dien-3-ol]				0	8	7	0	8	7				0	2.25	0	0	0	0	DF norm AVERAGE OR10a [1]: 0; DF norm AVERAGE OR98a [2, 17]: 0; DF norm AVERAGE OR98a [2, 18]: 0.08127; DF norm AVERAGE OR98a [2, 19]: 0.07281
CCCCCO [1-pentanol]				0	2.81	0	0	0	0				0	0	0	0	0	0	DF norm AVERAGE OR10a [1]: 0; DF norm AVERAGE OR98a [2, 17]: 0; DF norm AVERAGE OR98a [2, 18]: 0; DF norm AVERAGE OR98a [2, 19]: 0
CC1=CC[C@@H](C(C)(C)O)CC1 [alpha-terpineol]	0	0	0	0	1.81	6.45	0	0	6.45	0	0	0.06455				0	0	0	activation at 1 µM ([1]; HEK293, read-out: OR10a Average response (VUAA1-normalized), 1 μM VOC, 50 μM VUAA1 = 1, responses not exceeding 0.05 considered 0): 3.64%; activation at 10 µM ([1]; HEK293, read-out: OR10a Average response (VUAA1-normalized), 10 μM VOC, 50 μM VUAA1 = 1, responses not exceeding 0.05 considered 0): 2.71%; activation at 100 µM ([1]; HEK293, read-out: OR10a Average response (VUAA1-normalized), 100 μM VOC, 50 μM VUAA1 = 1, responses not exceeding 0.05 considered 0): 0%
